Assay: gradient 5% acetonitrile 3 min, to 50% in 2 min, to 85% in 15 min, held 3 min, 100 µL/min
Conditions: column: Zorbax Extend-C18 2.1 x 50 mm; eluents: water / acetonitrile, 0.1% formic acid
Procedure, shortened: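 Retention time was recorded from adduct peaks, which were picked computationally and each inspected manually. Pure standards ran in mixtures of ~100 molecules on HPLC coupled to a quadrupole time-of-flight mass spectrometer, in positive and negative ionization mode, through a Zorbax Extend-C18 column (2.1 × 50 mm, 1.8 μm) at 100 μL/min. Eluents were water and acetonitrile, each with 0.1% formic acid.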

Compound | RP-LC retention time
Cc1ccc(NS(=O)(=O)c2cc(-c3cc(C(F)(F)F)on3)sc2C)cc1C | 1200 s
COc1ccc(S(=O)(=O)CCC(=O)NC(C(=O)N2CCCc3ccccc32)c2ccccc2)cc1 (stereo not given) | 928 s
CCc1ccc(S(=O)(=O)NCCc2cn(CC(C)C)c3ncccc23)cc1 | 946 s
Cc1ccc(Nc2nc(C)cc(N3CCN(C(=O)Nc4ccc5c(c4)OCO5)CC3)n2)cc1 | 676 s
COc1cccc(CNc2ncccc2-c2nnc(-c3ccccc3)o2)c1 | 1170 s
Cc1ccc(CNC(=O)C2(C)CN(S(C)(=O)=O)CC(=O)N2CCCc2ccccc2)cc1 (stereo not given) | 927 s
CCCCCCCCCCNCCSSCc1ccc(Cl)cc1 | 1120 s
Cc1nc2cc(-c3noc(-c4cccc(Cl)c4)n3)ccc2o1 | 1210 s
O=C(Cc1noc2ccccc12)Nc1cccc2nsnc12 | 814 s
CC1CCN(c2ccc(-c3noc(CN(C)C4CCCCC4)n3)cn2)CC1 | 720 s
CCN1C(=O)COc2ccc(-c3noc(-c4ccc(CS(=O)(=O)c5ccc(C)cc5)cc4)n3)cc21 | 1100 s
CCOc1ccc(N(C)C(=O)Cn2cccc2-c2nnc(C3CC3)o2)cc1 | 888 s
COc1ccc(Nc2c(-c3ccc(C)cc3)nc3cnccn23)cc1 | 855 s
O=C(C1CCN(c2nnc(-c3ccccc3)o2)CC1)N1CCC2(CC1)OCCO2 | 701 s
O=C(O)C1(c2cc(-c3ccccc3)on2)CC1 | 736 s
CCc1nc2cc3c(cc2n1CC(=O)Nc1ccc2c(c1)OCCCO2)OCCO3 | 648 s
O=C(Cc1ccccc1Br)N1CCN(c2cc(-c3ccccc3)[nH]n2)CC1 | 853 s
COc1ccccc1-c1nc(Cn2nnc(-c3nc(-c4cccc(OC)c4OC)no3)c2C)c(C)o1 | 1050 s
CCCCN(C)C(=O)c1cc2c(s1)N(CC)CCCC2 | 1100 s
COc1cccc(-c2nc(NCc3ccncc3)ncc2C(=O)O)c1 | 577 s
Cc1ccc2oc(C(=O)Nc3ccnn3Cc3ccccc3)cc(=O)c2c1 | 835 s
N#Cc1ccc(NC(=O)Cn2cccc(-c3nc(-c4ccc(F)cc4)no3)c2=O)cc1 | 857 s
Cc1ccc(C)c(CNC(=O)c2nc3cccnc3n(CC(C)C)c2=O)c1 | 1060 s
CN1CCN(CCCNC(=O)c2noc3c2CCCCC3)CC1 | 584 s
CC(=O)Nc1c(C)noc1/C=C\c1ccc(S(=O)(=O)N2CCN(c3ccccn3)CC2)cc1 | 643 s
Cc1cc(Br)ccc1-c1ccc(CNCCO)o1 | 662 s
CCCNc1cc(N2CCCC(CCC(=O)NCC3CCCO3)C2)ncn1 (stereo not given) | 608 s

Compound | RP-LC retention time
Cc1cncn(CC(=O)NC2CCCC2)c1=O | 576 s
COc1cccc(NC(=O)Cc2csc3nc(-c4ccccc4)cn23)c1 | 791 s
CC(C)(C)c1noc(-c2ccc(-n3cnc(C(=O)NC4CCCCC4)c3)nc2)n1 | 1040 s
O=C(CN1CCN(C(=O)c2cc3cn(C4CCCC4)cc3s2)CC1)N1CCCC1 | 1150 s
O=C1CC(c2nc(-c3ccccc3Cl)no2)CN1c1ccc2c(c1)OCO2 (stereo not given) | 933 s
COC(=O)C[C@@](O)(CCC(C)(C)O)C(=O)O[C@@H]1C(OC)=C[C@]23CCCN2CCc2cc4c(cc2[C@@H]13)OCO4 | 612 s
CCOC(=O)c1ccc(NC(=O)C2CCN(S(=O)(=O)c3cn(C(C)C)cn3)CC2)cc1 | 789 s
Cc1ccc(-c2ccc(N3CCCC(C(=O)NCc4ccc5c(c4)OCO5)C3)nn2)cc1C (stereo not given) | 763 s
Cc1c(S(=O)(=O)NCc2cccs2)c(C)n(C)c1-c1nnc(C2CCC2)o1 | 893 s
CN(C)C(=O)C1CCN(c2nc3ccc(-c4ccccc4)nc3s2)CC1 | 888 s
Cc1cc(C)c(CNC(=O)C2CCN(c3cncnc3N3CCOCC3)CC2)c(C)c1 | 681 s
CN(CC1(C)CCOCC1)S(=O)(=O)c1ccc(Cl)s1 | 976 s
Cc1[nH]c2ccccc2c1C(Nc1nc2ccccc2s1)c1ccccn1 (stereo not given) | 703 s
CC(NC(=O)c1cc2n(n1)CC(C)(C(=O)NC1CCCCC1)N(C)C2=O)c1ccccc1 (stereo not given) | 800 s
Cc1ccccc1Nc1c(-c2ccccc2F)nc2ccccn12 | 707 s
O=C(NCc1ccc(N2CCOCC2)nc1)c1ccc(C(F)(F)F)cc1 | 642 s
O=C(NCc1cccc(Cl)c1)c1ccc(-c2nc3cccnc3n2C2CCCCC2)cc1 | 1050 s
O=C1CN(S(=O)(=O)c2cccc(Cl)c2)CC2(CCOCC2)N1CC1CC1 | 877 s
COc1ccccc1C(=O)Nc1nnc(SCc2ccc(Br)cc2)s1 | 1140 s
Cc1cccc(-c2nnc(Cc3nc(-c4cccs4)no3)o2)c1 | 979 s
Cc1cc2nn(CC(=O)N(C)c3ccccc3)c(=O)n2c(Nc2ccc(C)c(C)c2)n1 | 1100 s
CCc1ccccc1NC(=O)Cn1c(NCCCc2ccccc2)nc(C)cc1=O | 857 s
Nc1ccc(CCN2CCN(c3cccc(C(F)(F)F)c3)CC2)cc1 | 633 s
C=CCN1C(=O)COc2ccc(-c3nc(NC(=O)c4cc(OC)cc(OC)c4)sc3C)cc21 | 1090 s
O=C(NCCn1cnc(-c2ccccc2)cc1=O)c1ccc2nsnc2c1 | 659 s
CCOC(=O)c1noc2ncnc(Nc3cccc(CC)c3)c12 | 1060 s
O=C(Nc1ccc2c(c1)CN(S(=O)(=O)c1ccccc1)CC2)NC1CCCCC1 | 901 s

The remaining lines, values ahead:

RP-LC retention time | Compound
686 s | CCc1ccccc1NC(=O)N1CC(n2cnnc2-c2ccccc2)C1
900 s | COc1cccc(Cn2nc3ccc(S(=O)(=O)N4CCC(C)CC4)cn3c2=O)c1
606 s | O=C(NCc1ccc(N2CCOCC2)nc1)c1cc(F)cc(F)c1
687 s | O=c1[nH]c2ccc(NCc3ccc(-c4ccccc4F)o3)cc2[nH]1
865 s | Cc1cccc(S(=O)(=O)N2CC3CN(C(=O)C4CCCCC4)CC(C2)O3)c1
789 s | O=C(Nc1cnc(N2CCOCC2)nc1)c1cc(F)cc(F)c1
819 s | COc1ccc(C(=O)N2CCN(c3ccc(-c4nc(C)cs4)cn3)CC2)cc1F
837 s | COC(=O)Nc1ccc(S(=O)(=O)N2CCCC(C(F)(F)F)C2)cc1 (stereo not given)
636 s | C[C@@H](NC(=O)c1cccc(F)c1)C(=O)NCc1cscn1
586 s | CN1C(=O)C2CCCCN2c2ccc(C(=O)NCCCN3CCCC3)cc21 (stereo not given)
700 s | Cc1ccc(CNC(=O)CCNc2c(-c3cccc(F)c3)nc3cnccn23)o1
628 s | CCCn1c(=O)sc2cc(S(=O)(=O)N3CCC(C(=O)N4CCN(C)CC4)CC3)ccc21
916 s | Cc1nc(-c2csc(S(=O)(=O)N3CCC(C(=O)Nc4ccc(F)cc4)CC3)c2)no1
880 s | Cc1cc2c(c(=O)n(-c3ccc(F)cc3)c(=O)n2CC(=O)Nc2ccccc2C(F)(F)F)n1C
710 s | COc1c(C(=O)NCCN2CCC(C)CC2)sc2ccc(Cl)cc12
569 s | CCN1CCN(S(=O)(=O)c2ccc(Cl)c(C(F)(F)F)c2)CC1
563 s | Cc1nn(C)cc1C(=O)Nc1c(C)n(C)n(-c2ccccc2)c1=O
716 s | CCc1ccc(CNC(=O)Cn2ccc3c(=O)n(C)c(=O)n(C)c32)cc1

RP-LC retention time | Compound
998 s | O=C(Nc1ccc(F)c(Cl)c1)c1cccn1Cc1noc(C2CC2)n1
688 s | COc1ccc2cc(C(=O)N3CCCN(c4cc(=O)n(C)c(=O)n4C)CC3)[nH]c2c1
587 s | CN1C(=O)[C@H]2CN(Cc3ccc(F)cc3F)C[C@H]2C1=O
1040 s | O=S1(=O)C[C@H](N2CCN(c3cccc(Cl)c3)CC2)[C@@H](S(=O)(=O)c2ccc(F)cc2)C1
811 s | O=C(Nc1ccccc1F)N1CCC(n2cnc3cc(Cl)ccc3c2=O)CC1
781 s | CCN1c2ccccc2C(=O)NC12CCN(C(=O)Nc1ccccc1OC)CC2
637 s | CSc1ccc(CNC(=O)c2cc3ccncc3n2C)cc1
904 s | O=C(c1cnn2cc(Br)cnc12)N1CCCC1c1cccc(F)c1 (stereo not given)
683 s | Cc1ccc(F)cc1NC(=O)Cc1nnc(-c2cnccn2)o1
975 s | COc1ccc(Cn2c(C(C)C)nc3sc4ccccc4c(=O)c3c2=O)cc1
775 s | CCN1CCN(c2ccc(NC(=O)c3ccc(Cl)cc3)cn2)C1=O
1190 s | Cc1ccc2c(c1)OCC(=O)N2Cc1nc(-c2ccc(Cl)c(F)c2)no1
677 s | CC1CCCN(CCCNC(=O)CCCn2c(=O)c3cccn3c3ccc(Br)cc32)C1 (stereo not given)
844 s | CCn1ccc2c(cc(C(=O)Nc3ccc(Br)cc3)n2C)c1=O
599 s | CC(NC(=O)Cc1c(F)cccc1Cl)C(=O)N1CCN(c2ccccn2)CC1 (stereo not given)
825 s | O=C(NC1CCCCC1)C1CCCN(C(=O)c2ccc(F)c(F)c2)C1 (stereo not given)
787 s | Cc1cc(C)cc(C(=O)N2CCC3(CC2)NC(=O)c2ccc(F)cc2N3C)c1
720 s | COc1ccccc1N1CCN(C(=O)Cn2cnc3onc(C)c3c2=O)CC1
